As a reminder, the IC50 is the concentration that gives 50% inhibition. Read a high IC50 as weaker potency in that assay.

The values below come from patent US11371025B2, “Non-covalent loading of plant picovirus particles” (CASE WESTERN RESERVE UNIVERSITY, priority 2013, dated 2022).

Where a name gives a salt, the structure may show the parent alone.

Test [1] concerns HeLa cells. Particulars: 0.2 μM DAPI, 60 min incubation. As for the experimental part:
Cells were fixed and stained with WGA-A488 (Invitrogen) as described above. […] Confocal images were captured and analyzed as described above.
For delivery studies, the DAPI concentration was five magnitudes lower measuring only 0.2 μM DAPI.

Test [2] deals with HeLa cells. Description: XTT cell viability assay, HeLa. In kind it is cell-based, human. Particulars: drug concentration, 24 h exposure, washed, further 24 h. A general note: Formazan colour is commonly taken as a measure of viable cells.
Test [3] has as its system HT-29 cells. Briefly: XTT cell viability assay, HT-29. Type of test: cell-based. The conditions noted are these: Homo sapiens, drug concentration, 24 h exposure, washed, further 24 h.
The test system of test [4] is PC-3 cells. Description: XTT cell viability assay, PC-3. Type of test: cell-based. Particulars: Homo sapiens, drug concentration, 24 h exposure, washed, further 24 h.

With 4′,6-diamidino-2-phenylindole [DAPI], in test [1], the “fluorescent signals from the nuclei” value is “do not show any apparent fluorescent signals”. The compound `N.N.[Cl][Pt][Cl]` [CDDP, cis-dichlorodiammine platinum(II)] showed an IC50 in test [2] of 12 to 21 µM. For the compound `Nc1ccc2cc3ccc(N)cc3nc2c1` [proflavine, 3,6-diaminoacridine hydrochloride], the IC50 in test [2] (Homo sapiens) was 1.8 to 2.9 µM; in test [3], 6.13 µM; in test [4], 6.13 µM.
